Inconclusive results and toxic doses are left out. Rule as the data show it: active = T/C of 150% or more; inactive = T/C below 125%.
System: L1210 leukemia ip in BDF1 mice, survival T/C
Assay: NCI In Vivo Anticancer Drug Screen. Data for tumor model L1210 Leukemia (intraperitoneal) in B6D2F1 (BDF1) mice
Conditions: endpoint: mean survival time, higher = longer survival
Outline: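 Mice bearing the transplanted tumor received compound or vehicle. Survival of the treated group was divided by that of the vehicle-treated control group to give the ratio.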

[1] = dose: 100.0 mg/kg/injection, schedule: Q04DX003 (ip), vehicle: saline
[2] = dose: 200.0 mg/kg/injection, schedule: Q04DX003 (ip), vehicle: saline
[3] = dose: 100.0 mg/kg/injection, schedule: Q01DX001 (ip), vehicle: saline
[4] = dose: 200.0 mg/kg/injection, schedule: Q01DX001 (ip), vehicle: saline
[5] = dose: 400.0 mg/kg/injection, schedule: Q01DX001 (ip), vehicle: saline
[6] = dose: 100.0 mg/kg/injection, schedule: Q04DX003 (ip), vehicle: saline with Tween-80
[7] = dose: 200.0 mg/kg/injection, schedule: Q04DX003 (ip), vehicle: saline with Tween-80
[8] = dose: 400.0 mg/kg/injection, schedule: Q04DX003 (ip), vehicle: saline with Tween-80
[9] = dose: 10.0 mg/kg/injection, schedule: Q01DX001 (ip), vehicle: saline
[10] = dose: 20.0 mg/kg/injection, schedule: Q01DX001 (ip), vehicle: saline
[11] = dose: 40.0 mg/kg/injection, schedule: Q01DX001 (ip), vehicle: saline
[12] = dose: 100.0 mg/kg/injection, schedule: Q01DX001 (ip), vehicle: Klucel (hydroxypropylcellulose) (HPC)
[13] = dose: 200.0 mg/kg/injection, schedule: Q01DX001 (ip), vehicle: Klucel (hydroxypropylcellulose) (HPC)

Measured: T/C

c1ccc(CN2CCC(N3CCCC3)CC2)cc1
inactive: dose: 50.0 mg/kg/injection, schedule: Q01DX009 (ip), vehicle: saline 101 % of control | dose: 100.0 mg/kg/injection, schedule: Q01DX009 (ip), vehicle: saline 95 % of control | [1] 109 % of control | dose: 200.0 mg/kg/injection, schedule: Q01DX009 (ip), vehicle: saline 94 % of control | [2] 101 % of control

Brc1ccc(/C=N/Nc2nnc(N/N=C/c3ccc(Br)cc3)c3ccccc23)cc1
inactive: dose: 50.0 mg/kg/injection, schedule: Q01DX001 (ip), vehicle: saline 93 % of control | [3] 96 % of control | [4] 102 % of control | [5] 102 % of control

Nc1ccc2ncccc2c1[N+](=O)[O-]
inactive: dose: 100.0 mg/kg/injection, schedule: Q01DX001 (ip), vehicle: other 87 % of control | dose: 200.0 mg/kg/injection, schedule: Q01DX001 (ip), vehicle: other 93 % of control

CC(=O)n1ncc2ccc([N+](=O)[O-])cc21
inactive: dose: 100.0 mg/kg/injection, schedule: Q01DX009 (ip), vehicle: water 105 % of control | dose: 100.0 mg/kg/injection, schedule: Q04DX003 (ip), vehicle: water 93 % of control | dose: 200.0 mg/kg/injection, schedule: Q01DX009 (ip), vehicle: water 105 % of control | dose: 200.0 mg/kg/injection, schedule: Q04DX003 (ip), vehicle: water 100 % of control | dose: 400.0 mg/kg/injection, schedule: Q01DX009 (ip), vehicle: water 107 % of control | dose: 400.0 mg/kg/injection, schedule: Q04DX003 (ip), vehicle: water 96 % of control

C[N+](C)(C)/N=C1\CC2CCC1C2 (configuration not stated)
inactive: [3] 98 % of control | [4] 101 % of control

O=C(NCCCCNC(=O)Nc1cccc(C2=NCCN2)c1)Nc1cccc(C2=NCCN2)c1
inactive: dose: 12.0 mg/kg/injection, schedule: Q01DX Z (ip), vehicle: carboxymethylcellulose (CMC) 114 % of control | dose: 23.0 mg/kg/injection, schedule: Q01DX Z (ip), vehicle: carboxymethylcellulose (CMC) 100 % of control | dose: 46.0 mg/kg/injection, schedule: Q01DX Z (ip), vehicle: carboxymethylcellulose (CMC) 108 % of control

CCCCCCCCCCCCCCCC(=O)N(CCCCN(CCCN(C)C)C(=O)CCCCCCCCCCCCCCC)CCCN(C)C
inactive: [6] 91 % of control

O=S1(=O)CC(Br)C1
inactive: dose: 12.5 mg/kg/injection, schedule: Q04DX002 (ip), vehicle: Klucel (hydroxypropylcellulose) (HPC) 86 % of control | dose: 25.0 mg/kg/injection, schedule: Q01DX009 (ip), vehicle: Klucel (hydroxypropylcellulose) (HPC) 96 % of control | dose: 25.0 mg/kg/injection, schedule: Q04DX002 (ip), vehicle: Klucel (hydroxypropylcellulose) (HPC) 93 % of control | dose: 50.0 mg/kg/injection, schedule: Q01DX009 (ip), vehicle: Klucel (hydroxypropylcellulose) (HPC) 96 % of control | dose: 50.0 mg/kg/injection, schedule: Q04DX002 (ip), vehicle: Klucel (hydroxypropylcellulose) (HPC) 109 % of control

OC(CNc1ccccc1)CN1CCCC1 (configuration not stated)
inactive: [1] 89 % of control | [2] 94 % of control

CCC(=O)Nc1cc(C(F)(F)F)ccc1Cl
inactive: dose: 100.0 mg/kg/injection, schedule: Q01DX009 (ip), vehicle: saline with Tween-80 96 % of control | [6] 103 % of control | dose: 200.0 mg/kg/injection, schedule: Q01DX009 (ip), vehicle: saline with Tween-80 96 % of control | [7] 98 % of control | dose: 400.0 mg/kg/injection, schedule: Q01DX009 (ip), vehicle: saline with Tween-80 98 % of control | [8] 98 % of control

N#CC(C#N)=Cc1ccc(O)cc1
inactive: dose: 5.0 mg/kg/injection, schedule: Q01DX001 (ip), vehicle: saline 105 % of control | [9] 105 % of control | [10] 92 % of control | [11] 103 % of control | dose: 80.0 mg/kg/injection, schedule: Q01DX001 (ip), vehicle: saline 97 % of control

C[N+]1(C)C2CCCCC1CC(=O)C2
inactive: [9] 96 % of control | [10] 98 % of control | [11] 95 % of control

O=C(O)C(c1ccccc1)S(=O)(=O)C(C(=O)O)c1ccccc1 (configuration not stated)
inactive: [3] 95 % of control | [4] 101 % of control | [5] 95 % of control

O=c1cc(N(Cc2ccccc2)Cc2ccccc2)[nH]c(=O)[nH]1
inactive: dose: 75.0 mg/kg/injection, schedule: Q01DX001 (ip), vehicle: Klucel (hydroxypropylcellulose) (HPC) 101 % of control | dose: 75.0 mg/kg/injection, schedule: Q01DX001 (ip), vehicle: saline with Tween-80 94 % of control | dose: 150.0 mg/kg/injection, schedule: Q01DX001 (ip), vehicle: Klucel (hydroxypropylcellulose) (HPC) 102 % of control | dose: 150.0 mg/kg/injection, schedule: Q01DX001 (ip), vehicle: saline with Tween-80 95 % of control | dose: 300.0 mg/kg/injection, schedule: Q01DX001 (ip), vehicle: Klucel (hydroxypropylcellulose) (HPC) 106 % of control | dose: 300.0 mg/kg/injection, schedule: Q01DX001 (ip), vehicle: saline with Tween-80 98 % of control

COc1ncnc(=O)[nH]1
inactive: [3] 97 % of control | [4] 98 % of control | [5] 97 % of control

Nc1nc(N)c2c(n1)SCC(/C=N/O)=N2
inactive: [12] 108 % of control | [13] 95 % of control | dose: 400.0 mg/kg/injection, schedule: Q01DX001 (ip), vehicle: Klucel (hydroxypropylcellulose) (HPC) 97 % of control

[Se]=P(C#Cc1ccccc1)(C#Cc1ccccc1)C#Cc1ccccc1
inactive: dose: 100.0 mg/kg/injection, schedule: Q01DX001 (ip), vehicle: saline with Tween-80 87 % of control | dose: 200.0 mg/kg/injection, schedule: Q01DX001 (ip), vehicle: saline with Tween-80 93 % of control | dose: 400.0 mg/kg/injection, schedule: Q01DX001 (ip), vehicle: saline with Tween-80 87 % of control

O=C(O)c1cc(S(=O)(=O)Cl)cc(S(=O)(=O)Cl)c1
inactive: dose: 75.0 mg/kg/injection, schedule: Q01DX001 (ip), vehicle: saline 107 % of control

CC1([N+](=O)[O-])COP(=O)(Nc2cccc(Br)c2)OC1 (configuration not stated)
inactive: dose: 100.0 mg/kg/injection, schedule: Q01DX001 (ip), vehicle: carboxymethylcellulose (CMC) 96 % of control | dose: 200.0 mg/kg/injection, schedule: Q01DX001 (ip), vehicle: carboxymethylcellulose (CMC) 94 % of control | dose: 400.0 mg/kg/injection, schedule: Q01DX001 (ip), vehicle: carboxymethylcellulose (CMC) 100 % of control

Cc1ccc(-n2c(=O)c(N=Nc3ccccc3C)c(O)n(-c3ccccc3Cl)c2=S)cc1
inactive: dose: 50.0 mg/kg/injection, schedule: Q01DX001 (ip), vehicle: Klucel (hydroxypropylcellulose) (HPC) 104 % of control | [12] 94 % of control | [13] 98 % of control

O=C(NCCCC1C2CCC(C2)C1CNC(=O)Nc1cccc(Cl)c1)Nc1cccc(Cl)c1 (configuration not stated)
inactive: [6] 91 % of control | [7] 92 % of control | [8] 87 % of control

Source: PubChem BioAssay AID248 (DTP/NCI, 2004)
